The text below walks through data of patent publication US12358867B1, “Peptoid-based inhibitors of the protein arginine methyltransferase (PRMT) family” (University of North Florida Board of Trustees, priority 2020, dated 2025).

Where two headings read alike, the source gives them in different places. Starred links: 1 amine or outer side, 2 acyl side, 3 side chain; linkers in the order of their positions; H or OH if unused. Non-standard residues stand in square brackets, D forms with d. Residues, ends and D or L forms follow the SMILES beside them. Gly(N-(CH2)3-guanidino) = N=C(N)NCCCNCC(=O)O; X1 = N=C(CCl)NCCCN(CC(=O)[*:2])[*:1]; Gly(N-CH2CH2OH) = O=C(O)CNCCO; Nleu = CC(C)CNCC(=O)O; Nlys = NCCCCNCC(=O)O; Sar = CNCC(=O)O Some results are limits rather than exact numbers.

Data set [1] relates to caspase-3 activity in HepaRG cells. Conditions: only at the highest dose. As to the method: Caspase-3 activity assay was performed on extracted protein lysates using colorimetric caspase-3 activity assay (K106; Biovision) as per manufacturer's protocol. Briefly, 50 μL of extracted protein was plated in a UV compatible 96 well plate. DEVD-pNA substrate in prepared 1× buffer was added to each sample. The plate was shaken for 10 minutes and incubated at 37° C. in Biorad plate reader and read at 405 nm every 10 minutes for 2 hours.

Data set [2] concerns Human Mammary Epithelial Cells (HMEC). Conditions: normal HMEC, 72 hour time course. As to the method: (§1) MDA-MB-468 breast carcinoma cells (ATCC; HTB132), HCT116+/+p53 colon carcinoma cells were grown in DMEM supplemented in 5% FBS. HepaRG terminally differentiated liver cell line (Thermoscientific; HPRGC10) and HepaRG-Fucci cells were grown in Williams media supplemented with Glutamax and 5% FBS and normal Human Mammary Epithelial Cells (HMEC) (ATCC; PCS-600-010) were grown in Mammary epithelial basal medium (ATCC; PCS-600-030) supplemented with mammary epithelial cell growth kit (ATCC; PCS-600-040). Cells were recovered with 0.25% trypsin-EDTA, plated on cell culture treated plates and/or coverslips according to the experimental design and incubated overnight in 37° C. humidified CO2 incubator kept at 5% CO2 (800WJ; Thermoscientific). Cells were washed twice with sterile PBS before switching to serum free treatment media along with varying concentrations of the PRMT inhibitor compound (0-40 μM).
(§2) Cell viability and growth was assessed using the crystal violet assay as described by Oliver et al., J Cell Sci, 1989). […] Cells were fixed at each time point with 100% methanol and stained with 1% crystal violet in 0.01M borate buffer (pH 8.9). Absorbance of dye eluted in 1:1 (v/v) ethanol: 0.01M HCl was checked at 650 nm by microplate reader. The cell growth rate was calculated by the following formula: Cell growth rate (%)=(A650 at n hour/A650 0 h). Each condition was tested in triplicate and repeated three independent times.

Data set [3] relates to HepaRG immortalized, terminally differentiated liver cells. The conditions noted are these: non-tumorigenic HepaRG; for growth over time course: 72 hour time course. As to the method: as §1, §2
Data set [4] deals with T1, PRMT1 (Homo sapiens, UniProt Q99873).
T1 construct: made in house
T1 sequence (Q99873 1-353 isoform Q99873-3, species assumed): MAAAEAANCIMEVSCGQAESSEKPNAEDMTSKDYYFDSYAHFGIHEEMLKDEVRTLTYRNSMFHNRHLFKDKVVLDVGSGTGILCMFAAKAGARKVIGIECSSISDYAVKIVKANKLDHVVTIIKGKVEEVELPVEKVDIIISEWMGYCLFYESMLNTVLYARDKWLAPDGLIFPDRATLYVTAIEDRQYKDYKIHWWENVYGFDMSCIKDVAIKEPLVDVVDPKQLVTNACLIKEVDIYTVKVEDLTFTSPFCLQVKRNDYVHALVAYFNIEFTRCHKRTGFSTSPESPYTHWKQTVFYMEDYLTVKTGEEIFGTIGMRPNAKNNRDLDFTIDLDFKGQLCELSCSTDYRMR
Briefly: IC50 assay, MTase-Glo Methyltransferase assay. The class given is biochemical. As to the method:
The efficacy of the peptoid inhibitors was probed using the MTase-Glo Methyltransferase assay kit. Various concentrations (0-1000 μM) of peptoid was incubated in assay buffer (20 mM Tris-HCl pH 8.0, 50 mM NaCl, 1 mM EDTA, 3 mM MgCl2, 0.1 mg/ml BSA, 1 mM DTT) at 37° C. for 10 min. Afterward, the inhibitor was allowed to interact with 200 nM PRMT1 for 15 min at 37° C. The reaction was catalyzed with 225 μM of AcH4-21 (a PRMT1 peptide substrate), continued for 15 min at 37° C., was quenched with the addition of 0.5% TFA (0.1% final concentration, 10 min, r.t.), followed by the addition of MTase-Glo Reagent to a final concentration of 1×. After 30-min incubation at r.t., MTase-Glo Detection Solution was added and incubated for 30 min at r.t. Luminescence signal was converted to product concentration using SAH standards (0-5 μM), following the above assay. Immediately afterwards, the luminescence signal was read with a BioTek Synergy 2 Multi-Mode Microplate Reader. IC50 values were determined by fitting the data to equation (2) using GraFit version 7.03. Fractional activity of PRMT=1/(1+([I]/IC50)) (2) where [I] is the inhibitor concentration and IC50 is the concentration of inhibitor resulting in 50% PRMT activity.
The IC50 value for the peptoid inhibitors were measured using the MTase-Glo Methyltransferase assay kit (Promega). The peptoid was incubated in assay buffer (20 mM Tris-HCl pH 8.0, 50 mM NaCl, 1 mM EDTA, 3 mM MgCl2, 0.1 mg/mL BSA, 1 mM DTT) and substrate (0-1000 μM) at either 37° C. (PRMT1) or 25° C. (PRMT5). After a pre-incubation of 10 minutes, 200 nM PRMT1 or PRMT5 was added to the assay before adding in the substrate, AcH4-21, at 225 μM. The reaction proceeded for 15 minutes before being quenched with 0.5% TFA (0.1% final concentration), vortexed, and incubated for an additional 10 minutes. To detect product formation, the MTase-Glo Reagent was added for 30 minutes at r.t., followed by addition of the MTase-Glo Detection solution for an additional 30 minutes. Finally, the luminescence signal was measured using a BioTek Synergy 2 Multi-Mode Microplate Reader. The values were converted to product concentration using a standard curve of S-adenosylhomocysteine (SAH; 0-5 μM). The IC50 values were determined using equation 1 and fit to a curve using GraFit 7.03. Fractional activity of PRMT=1/(1+([I]/IC50)) (2) IC50 is the concentration of inhibitor resulting in 50% PRMT activity and [I] is the inhibitor concentration. Cell Culture and Conditions

The target of data set [5] is T1, PRMT1. The data set is described as follows: Km assay, MTase-Glo Methyltransferase assay (peptoid as substrate). It is filed as biochemical. The conditions noted are these: peptoid 0-1000 μM, 200 nM PRMT1. The procedure:
The kinetics of each peptoid were determined using the MTase-Glo Methyltransferase assay kit to monitor the conversion of S-adenosylmethionine (SAM) to S-adenosylhomocysteine (SAH). Briefly, various concentrations (0-1000 μM) of the peptoid in assay buffer (20 mM Tris-HCl pH 8.0, 50 mM NaCl, 1 mM EDTA, 3 mM MgCl2, 0.1 mg/ml BSA, 1 mM DTT) were incubated at 37° C. After 10 min, 200 nM PRMT1 was added to initiate the reaction. The reaction proceeded for 10 min at 37° C. until quenched with the addition of 0.5% TFA (0.1% final concentration, 10 min, r.t.) followed by the addition of MTase-Glo Reagent to a final concentration of 1×. After 30 min incubating at r.t, MTase-Glo Detection Solution was added and incubated for 30 min at r.t. Immediately afterwards, the luminescence signal was read with a BioTek Synergy 2 Multi-Mode Microplate Reader. Luminescence signal was converted to product concentration using SAH standards (0-5 μM), following the above assay. The initial rates were fitted into equation (1) using GraFit version 7.03. V=Vmax[S]/(Km+[S]) (1) IC50 Assay

Setting [6] is: listed as unacetylated H4-16 warhead chloracetamidine peptoid.
The mark [7] stands for this setting: histone H4 peptoids, SAM 40 μM, substrate AcH4-21 225 μM, read-out: IC50.

Regarding `CC(C)CN(CC(=O)NCC(=O)N(CCCCN)CC(=O)NCC(=O)NCC(=O)N(C)CC(=O)N(CCCCN)CC(N)=O)C(=O)CNC(=O)CN(CCCCN)C(=O)CNC(=O)CNC(=O)CN(CCCCN)C(=O)CNC(=O)CN(CCCNC(=N)CCl)C(=O)CNC(=O)CNCCO` [Peptoid P2] (H-[Gly(N-CH2CH2OH)]G[X1]G[Nlys]GG[Nlys]G[Nleu]G[Nlys]GG[Sar][Nlys]-NH2), the caspase-3 activity result in data set [1] was “minimal activation of caspase-3”; in data set [1] (setting [6]), “Only minimal activation of caspase-3”. In addition, the “growth over time course” value is reported as “no detectable effect in growth” in data set [2], “No detectable effect in growth” in data set [2] (setting [6]), “no detectable effect in growth” in data set [3] and “No detectable effect in growth” in data set [3] (setting [6]). Besides, the cell viability result in data set [3] (0-40 μM, 48 hours) was “no prominent change”.
Regarding `CC(=O)N(CCO)CC(=O)NCC(=O)N(CCCNC(=N)N)CC(=O)NCC(=O)N(CCCCN)CC(=O)NCC(=O)NCC(=O)N(CCCCN)CC(N)=O` [AcH4-8] (Ac-[Gly(N-CH2CH2OH)]G[Gly(N-(CH2)3-guanidino)]G[Nlys]GG[Nlys]-NH2), the IC50 – broadly, the concentration needed to halve the response being measured – on PRMT1 [4] (setting [7]) was over 1 mM. Besides, the “modification / product turnover as PRMT1 substrate” value at PRMT1 [5] is recorded as “low product turnover”.
Turning to `CC(=O)N(CCO)CC(=O)NCC(=O)N(CCCNC(=N)N)CC(=O)NCC(=O)N(CCCCN)CC(=O)NCC(=O)NCC(=O)N(CCCCN)CC(=O)NCC(=O)N(CC(=O)NCC(=O)N(CCCCN)CC(=O)NCC(N)=O)CC(C)C` [AcH4-13] (Ac-[Gly(N-CH2CH2OH)]G[Gly(N-(CH2)3-guanidino)]G[Nlys]GG[Nlys]G[Nleu]G[Nlys]G-NH2), the IC50 on PRMT1 [4] is over 1 mM. Besides, the “modification / product turnover as PRMT1 substrate” value at PRMT1 [5] is recorded as “low product turnover”.
For `N=C(N)NCCCN(CC(=O)NCC(=O)N(CCCCN)CC(=O)NCC(=O)NCC(=O)N(CCCCN)CC(N)=O)C(=O)CNC(=O)CNCCO` [Peptoid H4-8] (H-[Gly(N-CH2CH2OH)]G[Gly(N-(CH2)3-guanidino)]G[Nlys]GG[Nlys]-NH2), at PRMT1 [4] (setting [7]), the IC50 is over 1 mM. Further, the “inhibition of PRMT1” value on PRMT1 [4] (up to 1000 μM) is “did not show any inhibition up to 1000 μM”.
On to `CC(=O)N(CCO)CC(=O)NCC(=O)N(CCCNC(=N)N)CC(=O)NCC(=O)N(CCCCN)CC(=O)NCC(=O)NCC(=O)N(CCCCN)CC(=O)NCC(=O)N(CC(=O)NCC(=O)N(CCCCN)CC(=O)NCC(=O)NCC(=O)N(C)CC(=O)N(CCCCN)CC(N)=O)CC(C)C` [AcH4-16 peptoid] (Ac-[Gly(N-CH2CH2OH)]G[Gly(N-(CH2)3-guanidino)]G[Nlys]GG[Nlys]G[Nleu]G[Nlys]GG[Sar][Nlys]-NH2), for which, at PRMT1 [4], the IC50 came out at 0.916 ± 0.0195 mM.
